Results on two compounds are retold here after patent US20050148607A1, “Preventives and/or remedies for subjects with the expression or activation of her2 and/or egfr” (priority 2002, published 2005).

Each structure is given as a SMILES string.

Test [1] relates to human rectal cancer LS174T (EGFR negative, Her2 positive). Briefly: In vivo antitumor effects, LS174T xenograft in nude mice. Conditions: Balb/c nude mice, final day. The method, then: (§1) Cultured human cancer cells suspended in PBS were implanted subcutaneously in the back of female Balb/c nude mice (Balb/cAJcl-nu mouse, CLEA Japan Inc., 5-week-old when received) at 5×10^6/100 μl. When about 7 days later and the average volume of the implanted tumors almost reached 100 mm^3, the mice were allotted by 4 mice per group such that the average tumor volume of each group became equal.
(§2) For the tumor volume, the longer diameter and the shorter diameter were measured with calipers and calculated as [(shorter diameter)^2×(longer diameter/2)]=tumor volume [mm^3]. A pharmaceutical agent was administered by oral gavage once a day for 14 consecutively days from the day of allottment, and the pharmaceutical agent was not administered to the mice of the control group. The relative tumor growth rate was calculated based on the tumor volume on the administration start day for the pharmaceutical agent treatment group against the control group as rate 1. The antitumor effects are shown in % control. The % control was calculated by the following formula. % control=[(average relative tumor growth rate of pharmaceutical agent treatment group on the final day-1)/(average relative tumor growth rate of control group on the final day-1)]×100

Test [2] relates to EGFR overexpression cancer A431. The settings on record: EGFR overexpression cancer A431, literature; cited from earlier work.
Test [3] has as its system human pancreatic cancer HPAC (both EGFR, Her2 positive). Briefly: In vivo antitumor effects, HPAC xenograft in nude mice. Conditions: Balb/c nude mice, final day. The method, then:
as §1, §2

The test system of test [4] is human cervical cancer ME180 (EGFR positive, Her2 negative). Briefly: In vivo antitumor effects, ME180 xenograft in nude mice. The settings on record: Balb/c nude mice, final day. The method, then: as §1, §2
The test system of test [5] is erbB3. Conditions: MDA-MB-453 cells stimulated with Heregulin, literature; cited from earlier work.
The test system of test [6] is human lung cancer NCI-H520 (both EGFR, Her2 negative). Put plainly: In vivo antitumor effects, NCI-H520 xenograft in nude mice. The settings on record: Balb/c nude mice, final day. The method, then: as §1, §2
Setting [7] is: 10 mg/kg oral once a day for 14 days.
[8] abbreviates: 30 mg/kg oral once a day for 14 days.

As to `C=CC(=O)Nc1cc2c(Nc3ccc(F)c(Cl)c3)ncnc2cc1OCCCN1CCOCC1` [PD, N-[4-(3-chloro-4-fluorophenyl)amino-7-[3-(4-morpholinyl)propoxy]quinazolin-6-yl]acrylamide], the “% control” value in test [1] (setting [7]) came out at 56 % control; in test [1] (setting [8]), 34 % control; in test [3] (setting [7]), 39 % control; in test [3] (setting [8]), 11 % control. Moreover, the “in vivo antitumor effect” value in test [2] is “shows an in vivo antitumor effect”.
In the case of `C=CC(=O)Nc1cc2c(Nc3ccc(F)c(Cl)c3)ncnc2cc1OCCCN1CCOCC1` [PD.2HCl], the “% control” value in test [4] (setting [7]) turned out to be 25 % control; in test [4] (setting [8]) it was 17 % control; in test [6] (setting [7]), 95 % control; in test [6] (setting [8]), 87 % control. The “inhibition of tyrosine phosphorylation of erbB3” value in test [5] was “inhibit tyrosine phosphorylation”.
